In patent US20220325242A1, “IDH2 INHIBITION FOR PRODUCING T-CELLS AND B-CELLS WITH A MEMORY PHENOTYPE” (Universite de Lausanne, priority 2019, published 2022):

Key:
[1] = system: OT1 CD8+ T-cells; assay: Flow cytometry of surface activation and memory markers on in vitro cultured OT1 CD8+ T-cells; type: cell-based, mouse; conditions: 5 μM inhibitor day 0-3, flow cytometry on day 3 and 7
Experimental: Example 2. In vitro culture of splenocytes comprising CD8+ T-cells. OT1 splenocytes (as described in Example 1) were cultured for 3 days at a concentration of 10^6 cells per mL in RPMI medium (Gibco 61870-01) supplemented with 10% FCS, (Gibco 10270-106), 1% Penicillin/Streptomycin (P/S; Gibco 15070-063), 0.1% 13-mercaptoethanol, 1% HEPES (Gibco 15630-080), 1× Non-essential amino acids (Gibco 11140-035), 1% L-glutamine (Gibco 25030-081), 1 mM Sodium Pyruvate (Gibco 11360-039), 100 U/m1 hIL-2 (Glaxo-IMB) and 1 μg/ml ovalbumin N4 peptide (SIINFEKL). To evaluate the effects of IDH2 inhibition on T-cell differentiation, 5 μM of a small molecule IDH2 inhibitor (AG221 or AGI6780) or a DMSO solvent control was added during this 3-day culture period. At day 3, a fraction of the splenocytes was collected and the remaining cells were cultured for 4 additional days with 100 U/ml hIL-2 and 10 ng/ml hIL-7 (Peprotech 200-07) supplementation after washing out the inhibitors and the ovalbumine N4 peptide (FIG. 1). At day 3 and day 7, the activation and differentiation state of CD8+ T-cells was determined by gene expression analysis, flow cytometry and extracellular metabolic flux analyses (see Example 3).
Cells were incubated in a live/dead stain (Fixable aqua dead cell stain kit, Invitrogen) followed by an incubation with different antibody panels.
Antibody panel to determine the differentiation and activation state of in vitro cultured T-cells (see Examples 2 and 4): anti-CD8-PE-texas-Red, anti-CD62L-FITC, anti-CD127-PE, anti-CD27-PerCP-Cy5.5, anti-CD71-PE-Cy7, anti-CD44-APC-Cy7, anti-CD98-APC, anti-CD25-Pacific blue (BD Pharmingen and eBioscience, San Diego, Calif., USA). All those antigens are surface molecules. Cells were gated on living single CD8+ cells before analysis of activation and memory marker expression. For the unstained control, cells were stained with the live/dead stain and anti-CD8-PE-texas-Red.
Cells were acquired on LSR-II flow cytometers from the flow cytometry facility of UNIL and data were analyzed with FlowJo™ 10 software. Antibodies were purchased from BD Phamingen (San Diego, Calif., USA), eBioscience (San Diego, Calif., USA, and Biolegend (San Diego, Calif., USA).

[2] = system: human CD8+ T-cells from umbilical cord blood; assay: CD62L flow cytometry of human cord blood mononuclear cells (CBMC); type: cell-based
Experimental: (§1) Methods: Mononuclear Cells were isolated from fresh umbilical cord blood on a Percoll Gradient (CBMCs). 10^4 CBMC's were seeded per well in a round bottom 96-well plate in RPMI with 10% human serum, and activated with (magnetic) αCD3/CD28 at a 1:2 cell:bead ratio and 300 U/ml rhIL-2, in the presence of 5 μM AG221 or DMSO, or 1 μM MK2206 (AKT inhibitor). After 11 days of culture, CD62L expression was analyzed by flow cytometry on a fraction of the cells (FIG. 15A). The other cells were washed 2 times and placed in a magnet to remove the inhibitors and the αCD3/CD28 beads. The cells were then rested for 4 hours before restimulating them for 4 hours with 1 ng/ml Phorbol 12-Myristate 13-Acetate (PMA, a PKC activator) and 50 μg/ml Ionomycin (a Ca^2+ ionophore, activating NF-KB and NFAT) in the presence of 50 μ/ml golgi inhibitor (Brefeldin A, BFA), allowing for the measurement of intracellular accumulation of different cytokines by flow cytometry.

[3] = system: human CD8+ T-cells; assay: Cytokine expression after PMA and Ionomycin restimulation of human CBMC-derived T-cells; type: cell-based; conditions: day 11 cells, inhibitors washed out, PMA and ionomycin 4 hours
Experimental: as §1

[4] = system: human CD4 T cells (CD3-positive/CD8-negative); assay: CD62L expression in whole culture and in CD4 T cells, human culture (FIG. 16); type: cell-based
Text: FIG. 16: Phenotypic analysis of human bulk PBMC at day 11 post in vitro activation. (A,B) Quantification of flow cytometry analysis at day 11 post-activation showing the percentage of CD62L+ CD8 T cells in the CD3/CD8 double positive T cell population (A) or in all living cells (B) from a culture of PBMCs treated with AKTi (MK2206), IDH2i (AG221) or DMSO control. (C,D) Quantification of flow cytometry analysis at day 11 post-activation showing the percentage of CD62L+ CD4 T cells in the CD3-positive/CD8-negative T cell population (C) or in all living cells (D). (E,F) Quantification of flow cytometry analysis at day 11 post-activation showing the percentage of CD8 T cells (E, identified as CD3/CD8 double positive) and CD4 T cells (F, identified as CD3-positive/CD8-negative) in all living cells of a culture of PBMCs treated with AKTi (MK2206), IDH2i (AG221) or DMSO control. *p<0.05, compared to DMSO Graphs show mean±SEM.
The previously obtained data has undergone additional analyses, in order to obtain more insight in CD62L expression in the whole culture as well as in CD4 T cells. In the human figure A and B, we now clearly made the distinction between CD62L expression as percentage out of CD8 T cells (FIG. 16A) or out of all living cells in the culture (FIG. 16 B).
As mentioned before, about 98% of the cells in culture on day 11 are CD3-positive. Since CD3 is exclusively expressed on CD4 and CD8 T cells, we can deduct that all CD3-positive, CD8-negative must be CD4 T cells. When analyzing the CD3-pos/CD8-neg population we observed that CD62L expression is induced upon AG221 treatment, both when expressed as percentage out of CD4 T cells (FIG. 16 C) and as percentage out of total living cells (FIG. 16 D). […] This can be explained by our observation that AKT inhibition favors CD8 T cell differentiation over CD4 T cell differentiation. This ratio remains unchanged upon AG221-treatment, as compared to DMSO control (FIG. 16 E and F).

CC(C)(O)CNc1nc(Nc2ccnc(C(F)(F)F)c2)nc(-c2cccc(C(F)(F)F)n2)n1 [AG221, 2-methyl-1-[[4-[6-(trifluoromethyl)pyridin-2-yl]-6-[[2-(trifluoromethyl)pyridin-4-yl]amino]-1,3,5-triazin-2-yl]amino]propan-2-ol]
CD62L surface expression compared to DMSO [1]: increased
other surface markers (CD25, CD44, CD71, CD98, CD27, CD127) compared to DMSO [1]: generally unchanged
CD62L expression in human CD8+ T-cells ([2]; day 11, 5 μM, versus DMSO): strong upregulation
CD8+ cells expressing CD62L ([2]; day 11, AG221 5 μM, MK2206 1 μM, DMSO control about 35%): about 75%
TNF expression upon restimulation [3]: unaffected
expression of effector cytokine IFNγ upon restimulation [3]: significant upregulation
production of IL-2 upon restimulation [3]: unaltered
CD8 T cell versus CD4 T cell differentiation (ratio in all living cells) ([4]; day 11, compared to DMSO control): unchanged
CD62L expression in CD3-pos/CD8-neg population, as percentage out of CD4 T cells ([4]; day 11, versus DMSO): induced
CD62L+ CD4 T cells as percentage out of total living cells ([4]; day 11, versus DMSO): induced
